Consider 2 compounds from patent US20070264702A1 (priority 2003, published 2007).

“Also recorded” adds a separate entry of the source.

For data set [1] the following is noted: in vivo; cited from earlier work.
Another data set deals with MarR (Escherichia coli, UniProt P27245). The conditions noted are these: cited from earlier work.
A further data set has as its system XylS2. The conditions noted are these: XylS2 mutant regulator; cited from earlier work.
A further data set deals with SL7207 4S2. Put plainly: growth inhibition of the bacterial cultures at high inducer concentration. The conditions noted are these: high concentrations (5 mM).
In data set [2] the test system is nahR/Psal with xylS2/Pm downstream. The conditions noted are these: cited from earlier work.
In data set [3] the test system is nahR/Psal::xylS2 cascade circuit with Pm::trp′::′lacZ in SL7207 4S2. The class given is cell-based, Salmonella typhimurium.
Data set [4] has as its system SL7207 4S2 pWSK-/pCAS-trp′::′lacZ infecting HeLa cells. The class given is cell-based.

Chain of MarR (P27245 whole entry): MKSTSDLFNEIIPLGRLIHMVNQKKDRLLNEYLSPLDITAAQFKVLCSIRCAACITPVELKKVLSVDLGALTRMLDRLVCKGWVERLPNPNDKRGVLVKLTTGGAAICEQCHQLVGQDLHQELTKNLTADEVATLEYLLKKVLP

The term half-life denotes the time needed for the level to fall by half in the phase considered. As usually defined, the Kd is the equilibrium constant for the complex coming apart. Regarding `O=C(O)c1ccccc1O` [salicylate], the half-life in data set [1] was 2 to 4 h. For the same compound, the Kd at MarR was 500 µM.

On to `CC(=O)Oc1ccccc1C(=O)O` [acetylsalicylic acid], for which the induction of expression with XylS2 is listed as 10 fold. For the same compound, the growth inhibition result in the data set with SL7207 4S2 is recorded as “growth inhibition was evident”. The “induction reached with regulation cascade system” value in data set [2] was 1,000 fold. Further, the “induction of the system, salicylate compared with acetylsalicylic acid” value in data set [3] is “induced the system similarly”. In addition, the “β-galactosidase expression in bacteria infecting HeLa cells” value in data set [4] is “induce similar levels of β-galactosidase; also recorded: activate the signal cascade to similar levels”.
